Patent US12065443B2, “Compounds and pharmaceutical compositions thereof for the treatment of diseases” (priority 2017, dated 2024)

Tests used:
[1] = tested on: LPS-induced TNFα secretion in monocyte-derived macrophages (MdM); assay: MdM assay: LPS-triggered TNFα (ELISA); type: cell-based, human; conditions: Homo sapiens, Macrophage, LPS-triggered TNFα inhibition
Method: This assay evaluates illustrative compounds of the invention for their inhibition of LPS-induced TNFα and LPS triggered IL-10 secretion in monocyte-derived macrophages.
PBMCs are isolated from human blood samples (buffycoats). The buffy coat is aseptically transferred into a 50 mL Falcon tube, and diluted 1/2 in PBS. Falcon tubes are filled with 20 mL Lymphoprep™, on top of which 25 mL of the buffy coat is carefully added, tubes are centrifuged for 35 min at 400 g in temperature controlled centrifuge, without brake, at 25° C. PBMCs are aspirated from the white interface layer between sample and Lymphoprep™. PBMCs are washed five times in PBS.
PBMCs are centrifuged at 300×g for 10 min and resuspended at a density of 1.0E07 cells/80 μL Miltenyi buffer (PBS, pH 7.4, 1% FBS, 2 mM EDTA).
Starting from this point of the protocol all steps are performed on ice. 20 μL of CD14+ micro-beads are added per 1.0E07 cells, the tube is mixed and incubated for 15 min in the fridge at 4° C. Cell suspension volume is adjusted to total volume of 100 mL using Miltenyi buffer, mixed gently and subsequently centrifuged for 10 min at 300× g. Supernantant is discarded and cell pellet is resuspended in 12 mL of Miltenyi buffer.
Four LS columns are placed in the MACS Separator (magnet) from Miltenyi Biotec, and are prewet by rinsing with 3 mL of MACS buffer per column. Three mL of cell suspension is added onto the column (max 1*10^8 of labelled cells/column), and columns are subsequently washed 3 times with 3 mL of Miltenyi buffer.
The columns are removed from the magnets, and 5 mL of Miltenyi buffer are added to the column to flush out the CD14+ fraction by pushing the plunger into the column. The flushed fractions are collected in a fresh 50 mL Falcon and volume is adjusted to 30 mL using Miltenyi buffer, cells are centrifuged for 10 min at 300× g. The obtained cell pellet is resuspended in 10 mL RPMI w/o FBS, and cell density is determined using a hematologic analyser (Sysmex XS-500i).
On day 10, MdMs are triggered and compound is added.
A compound dilution plate is made in 100% DMSO by 3-fold dilution of 10 mM stock solution. An intermediate dilution plate (10× final concentration) is made by diluting the compound dilution plate 50-fold in RPMI medium.
Medium is carefully removed from cell plates using multichannel pipette, and replaced by 80 μL fresh medium. 10 μL of the 10× final concentration compound is added to the cells and incubated for 1 hour at 37° C. before addition of trigger. No trigger conditions/trigger conditions are spiked with equal final DMSO concentrations of 0.2% DMSO. 10 μL of 10×LPS (final conc. 200 ng/mL) solution are added to all wells except for the ‘no trigger wells’ where 10 μL medium is added. Supernatant is collected after 2 h (IL-10 determination) and after 20 h (TNFα determination) of LPS triggering.
The plate is then washed once with PBST (PBS+0.05% Tween20) and once with PBS followed by the addition of 100 μL of blocking buffer (1% Bovine Serum Albumin (BSA)-5% Sucrose) and plates are sealed and incubated for at least 4 h at RT. After washing the plate once with PBST and once with PBS, 40 μL of standard or sample are added (TNFα standard curve is prepared using a 1/2 serial dilution starting from 16000 pg/mL; dilutions are made in dilution buffer (PBS+1% BSA)). Plates are washed twice with PBST, and once with PBS, after which 35 μL of the detection antibody is added (final concentration 0.25 μg/mL diluted in dilution buffer) and plates are incubated for at least 2 h at RT. Plates are washed twice with PBST, and once with PBS, where after 35 μL of Strep-HRP conjugate (0.5 μg/mL final concentration diluted in dilution buffer) is added. Plates are incubated in the dark, at RT for at least 45 min but no longer than 1 hour. Plates are washed twice with PBST, and once with PBS.

[2] = molecular target: T1, SIK1 (Homo sapiens, UniProt P57059); assay: biochemical; conditions: 33P radioactive SIK kinase assay, AMARA peptide, 10 μM ATP; read-out: SIK1 IC50
T1 construct: purchased Carna Biosciences 02-131
T1 sequence (P57059 whole entry): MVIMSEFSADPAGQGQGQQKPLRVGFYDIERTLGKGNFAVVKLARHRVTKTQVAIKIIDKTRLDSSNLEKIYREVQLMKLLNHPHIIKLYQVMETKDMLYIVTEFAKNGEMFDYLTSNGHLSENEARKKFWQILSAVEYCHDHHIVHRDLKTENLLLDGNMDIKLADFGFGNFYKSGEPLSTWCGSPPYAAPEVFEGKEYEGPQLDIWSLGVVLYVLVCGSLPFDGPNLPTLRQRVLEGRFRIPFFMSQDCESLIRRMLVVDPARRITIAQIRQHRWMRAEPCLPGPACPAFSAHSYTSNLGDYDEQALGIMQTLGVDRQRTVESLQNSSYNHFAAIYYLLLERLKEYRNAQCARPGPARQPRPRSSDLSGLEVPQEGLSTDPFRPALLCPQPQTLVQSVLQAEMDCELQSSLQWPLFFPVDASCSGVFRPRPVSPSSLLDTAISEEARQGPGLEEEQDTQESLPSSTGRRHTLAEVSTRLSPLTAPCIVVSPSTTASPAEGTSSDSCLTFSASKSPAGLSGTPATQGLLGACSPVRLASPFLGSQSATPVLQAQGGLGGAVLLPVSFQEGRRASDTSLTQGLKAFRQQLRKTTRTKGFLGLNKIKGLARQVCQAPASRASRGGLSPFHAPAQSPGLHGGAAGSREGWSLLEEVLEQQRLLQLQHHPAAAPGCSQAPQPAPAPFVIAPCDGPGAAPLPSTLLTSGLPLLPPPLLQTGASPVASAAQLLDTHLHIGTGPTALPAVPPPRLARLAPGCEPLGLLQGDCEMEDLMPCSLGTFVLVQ
Method in brief: (§1)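 AMARA peptide phosphorylation by SIK1–3 is quantified through ^33P uptake from a labeled/unlabeled ATP blend. Staurosporine at 10 μM final defines full inhibition, 1% DMSO the uninhibited signal. Quench uses phosphoric acid; counting follows filter capture.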

[3] = molecular target: T2, SIK3 (Homo sapiens, UniProt Q9Y2K2); assay: biochemical
T2 construct: purchased SignalChem S12-11G-100
T2 sequence (Q9Y2K2 whole entry): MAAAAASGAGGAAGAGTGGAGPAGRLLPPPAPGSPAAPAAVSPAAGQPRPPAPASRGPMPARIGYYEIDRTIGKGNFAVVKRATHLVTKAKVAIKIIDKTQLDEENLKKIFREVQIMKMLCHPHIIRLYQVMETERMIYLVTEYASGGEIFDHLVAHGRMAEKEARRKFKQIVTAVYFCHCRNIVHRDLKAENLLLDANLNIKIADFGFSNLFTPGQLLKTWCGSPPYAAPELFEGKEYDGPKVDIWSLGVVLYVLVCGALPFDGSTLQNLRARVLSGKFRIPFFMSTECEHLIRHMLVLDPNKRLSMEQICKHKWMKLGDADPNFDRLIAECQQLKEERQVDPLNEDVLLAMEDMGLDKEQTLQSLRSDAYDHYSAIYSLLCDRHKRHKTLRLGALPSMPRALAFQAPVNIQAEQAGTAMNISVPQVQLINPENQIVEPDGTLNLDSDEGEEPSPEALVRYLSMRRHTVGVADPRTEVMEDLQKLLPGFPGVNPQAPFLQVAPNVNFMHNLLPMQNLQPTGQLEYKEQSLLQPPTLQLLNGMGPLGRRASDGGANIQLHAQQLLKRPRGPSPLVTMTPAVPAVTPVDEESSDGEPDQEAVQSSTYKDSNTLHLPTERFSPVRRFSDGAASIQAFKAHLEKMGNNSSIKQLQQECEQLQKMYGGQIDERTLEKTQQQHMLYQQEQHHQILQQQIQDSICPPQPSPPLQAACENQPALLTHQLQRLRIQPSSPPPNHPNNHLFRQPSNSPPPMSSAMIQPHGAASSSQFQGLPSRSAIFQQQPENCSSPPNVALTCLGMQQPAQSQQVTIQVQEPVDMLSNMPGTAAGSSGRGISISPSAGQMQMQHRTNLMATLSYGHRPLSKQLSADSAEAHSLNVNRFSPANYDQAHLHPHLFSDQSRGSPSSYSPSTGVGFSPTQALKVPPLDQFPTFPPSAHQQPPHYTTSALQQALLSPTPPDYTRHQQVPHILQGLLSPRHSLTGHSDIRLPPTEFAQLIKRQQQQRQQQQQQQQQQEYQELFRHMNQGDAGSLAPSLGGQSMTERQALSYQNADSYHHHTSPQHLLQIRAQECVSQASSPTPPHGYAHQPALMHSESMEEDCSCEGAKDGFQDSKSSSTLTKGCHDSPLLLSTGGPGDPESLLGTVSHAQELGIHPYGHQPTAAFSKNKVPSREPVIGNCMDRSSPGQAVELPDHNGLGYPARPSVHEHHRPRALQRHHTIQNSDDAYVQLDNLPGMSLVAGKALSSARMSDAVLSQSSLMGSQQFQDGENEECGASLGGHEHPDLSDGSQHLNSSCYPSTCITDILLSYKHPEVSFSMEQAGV
Method in brief: as §1

[4] = molecular target: T3, SIK2 (Homo sapiens, UniProt Q9H0K1); assay: biochemical; conditions: 33P radioactive SIK kinase assay, AMARA peptide, 10 μM ATP
T3 construct: purchased ThermoFisher Scientific PV4792
T3 sequence (Q9H0K1 whole entry): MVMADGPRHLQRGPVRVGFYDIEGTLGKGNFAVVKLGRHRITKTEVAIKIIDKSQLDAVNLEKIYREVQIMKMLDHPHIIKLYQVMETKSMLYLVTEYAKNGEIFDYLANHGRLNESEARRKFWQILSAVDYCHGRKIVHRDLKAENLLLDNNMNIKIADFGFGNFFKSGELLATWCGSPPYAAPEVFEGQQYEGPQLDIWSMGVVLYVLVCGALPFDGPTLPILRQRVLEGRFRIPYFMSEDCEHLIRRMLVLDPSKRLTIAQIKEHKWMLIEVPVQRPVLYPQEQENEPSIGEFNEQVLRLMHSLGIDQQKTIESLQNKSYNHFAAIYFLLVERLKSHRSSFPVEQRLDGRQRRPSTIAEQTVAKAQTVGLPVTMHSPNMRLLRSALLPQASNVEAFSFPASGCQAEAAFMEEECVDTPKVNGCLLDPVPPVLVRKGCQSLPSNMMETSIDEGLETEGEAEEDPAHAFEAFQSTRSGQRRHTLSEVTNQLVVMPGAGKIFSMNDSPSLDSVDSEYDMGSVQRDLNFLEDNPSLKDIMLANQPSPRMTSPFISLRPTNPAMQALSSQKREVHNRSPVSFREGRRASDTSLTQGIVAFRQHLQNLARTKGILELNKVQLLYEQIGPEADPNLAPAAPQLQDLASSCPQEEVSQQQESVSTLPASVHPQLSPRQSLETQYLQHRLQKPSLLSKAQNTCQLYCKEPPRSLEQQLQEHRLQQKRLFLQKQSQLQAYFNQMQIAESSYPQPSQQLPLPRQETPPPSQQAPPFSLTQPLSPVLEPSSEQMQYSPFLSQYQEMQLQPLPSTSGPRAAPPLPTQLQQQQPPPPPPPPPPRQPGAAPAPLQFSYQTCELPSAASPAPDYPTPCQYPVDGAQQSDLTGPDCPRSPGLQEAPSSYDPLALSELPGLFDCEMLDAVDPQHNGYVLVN
Method in brief: as §1

| Compound | EC50 [1] [nM] | IC50 [2] [nM] | IC50 [3] [nM] | IC50 [4] [nM] |
| --- | --- | --- | --- | --- |
| COc1cc(-c2cnn3cc(-c4cnn(C)c4)cnc23)cc(OC)c1C(=O)NCC(F)(F)F [Cpd 52, 2,6-dimethoxy-4-[6-(1-methylpyrazol-4-yl)pyrazolo[1,5-a]pyrimidin-3-yl]-N-(2,2,2-trifluoroethyl)benzamide] | 100 to 1000 | 10 to 100 | 10 to 100 | 0.01 to 10 |
| COc1cc(-n2cnc3cc(-c4cnn(CC#N)c4)ccc32)cc(OC(F)F)c1C(=O)NC1CC1 [Cpd 55, 4-[5-[1-(cyanomethyl)pyrazol-4-yl]benzimidazol-1-yl]-N-cyclopropyl-2-(difluoromethoxy)-6-methoxy-benzamide] | 0.1 to 100 | 0.01 to 10 | 0.01 to 10 | 0.01 to 10 |
| COc1cc(-n2cnc3cc(-c4noc(C)n4)ccc32)cc(OC)c1C(=O)NCC(F)(F)F [Cpd 126, 2,6-dimethoxy-4-[5-(5-methyl-1,2,4-oxadiazol-3-yl)benzimidazol-1-yl]-N-(2,2,2-trifluoroethyl)benzamide] | 1000 to 5000 | > 500 | > 500 | > 500 |
| COc1cc(-n2cnc3cc(-c4nnc(C)[nH]4)ccc32)cc(OC)c1C(=O)NCC(F)(F)F [Cpd 127, 2,6-dimethoxy-4-[5-(5-methyl-4H-1,2,4-triazol-3-yl)benzimidazol-1-yl]-N-(2,2,2-trifluoroethyl)benzamide] | > 5000 | > 500 | 100 to 500 | 100 to 500 |
| COc1cc(-n2cnc3cc(-c4cn(C)cn4)ccc32)cc(OC)c1C(=O)NCC(F)(F)F [Cpd 137, 2,6-dimethoxy-4-[5-(1-methylimidazol-4-yl)benzimidazol-1-yl]-N-(2.2,2-trifluoroethyl)benzamide] | 100 to 1000 | 10 to 100 | 10 to 100 | 0.01 to 10 |
| COc1cc(-n2cnc3cc(-n4cnc(C)c4)ccc32)cc(OC)c1C(=O)NCC(F)(F)F [Cpd 155, 2.6-dimethoxy-4-[5-(4-methylimidazol-1-yl)benzimidazol-1-yl]-N-(2,2,2-trifluoroethyl)benzamide] | 1000 to 5000 | 100 to 500 | 10 to 100 | 10 to 100 |
| COc1cc(-c2cnc3cc(-c4cnn(CC(=O)OC(C)(C)C)c4)ccn23)cc(OC)c1C(=O)NCC(F)(F)F [Cpd 229, tert-butyl 2-[4-[3-[3,5-dimethoxy-4-(2,2,2-trifluoroethyl-carbamoyl)phenyl]imidazo[1,2-a]pyridin-7-yl]pyrazol-1-yl]acetate] | 100 to 1000 | 0.01 to 10 | 0.01 to 10 | 0.01 to 10 |
| COc1cc(-c2cnc3cc(-c4cnn(CC(=O)OC(C)C)c4)ccn23)cc(OC)c1C(=O)NCC(F)(F)F [Cpd 231, isopropyl 2-[4-[3-[3,5-dimethoxy-4-(2,2,2-trifluoroethyl-carbamoyl)phenyl]imidazo[1,2-a]pyridin-7-yl]pyrazol-1-yl]acetate] | 0.1 to 100 | 0.01 to 10 | 0.01 to 10 | 0.01 to 10 |

Further lines, results first:

| EC50 [1] [nM] | IC50 [2] [nM] | IC50 [3] [nM] | IC50 [4] [nM] | Compound |
| --- | --- | --- | --- | --- |
| 1000 to 5000 | 0.01 to 10 | 0.01 to 10 | 0.01 to 10 | COc1cc(-n2cnc3cc(-c4cnn(C)c4)ccc32)cc(OC)c1C(=O)NC1CCCC[C@H]1N (stereo in doubt) [compound 139, N-[(1R,2R)-2-aminocyclohexyl]-2,6-dimethoxy-4-[5-(1-methylpyrazol-4-yl)benzimidazol-1-yl]benzamide] |
| 0.1 to 100 | 10 to 100 | 0.01 to 10 | 0.01 to 10 | COc1cc(-c2cnc3cc(-c4cnn(C)c4)ccn23)cc(O)c1C(=O)NCC(F)(F)F [Cpd 233, 2-hydroxy-6-methoxy-4-[7-(1-methylpyrazol-4-yl)imidazo[1,2-a]pvridin-3-yl]-N-(2,2,2-trifluoroethyl)benzamide] |
| 0.1 to 100 | 0.01 to 10 | 0.01 to 10 | 0.01 to 10 | COc1cc(-c2cnc3cc(-c4cnn(CC(=O)OCCF)c4)ccn23)cc(OC)c1C(=O)NCC(F)(F)F [Cpd 235, 2-fluoroethyl 2-[4-[3-[3,5-dimethoxy-4-(2,2,2-trifluoroethyl-carbamoyl)phenyl]imidazo[1,2-a]pyridin-7-yl]pyrazol-1-yl]acetate] |
| 0.1 to 100 | 0.01 to 10 | 0.01 to 10 | 0.01 to 10 | COC(=O)Cn1cc(-c2ccn3c(-c4cc(OC)c(C(=O)NCC(F)(F)F)c(OC)c4)cnc3c2)cn1 [Cpd 236, methyl 2-[4-[3-[3,5-dimethoxy-4-(2,2,2-trifluoroethyl-carbamoyl)phenyl]imidazo[1,2-a]pyridin-7-yl]pyrazol-1-yl]acetate] |
| 100 to 1000 | 0.01 to 10 | 0.01 to 10 | 0.01 to 10 | COc1cc(-c2cnc3cc(-c4cnn(CC(=O)OC5CCOC5)c4)ccn23)cc(OC)c1C(=O)NCC(F)(F)F (stereo not drawn) [Cpd 237, tetrahydrofuran-3-yl 2-[4-[3-[3,5-dimethoxy-4-(2,2,2-trifluoroethyl-carbamoyl)phenyl]imidazo[1,2-a]pyridin-7-yl]pyrazol-1-yl]acetate] |
| 0.1 to 100 | 0.01 to 10 | 0.01 to 10 | 0.01 to 10 | COc1cc(-c2cnc3cc(-c4cnn(CC(=O)OCC5CCC5)c4)ccn23)cc(OC)c1C(=O)NCC(F)(F)F [Cpd 238, cyclobutylmethyl 2-[4-[3-[3,5-dimethoxy-4-(2,2,2-trifluoroethyl-carbamoyl)phenyl]imidazo[1,2-a]pyridin-7-yl]pyrazol-1-yl]acetate] |
| > 5000 | 0.01 to 10 | 0.01 to 10 | 0.01 to 10 | COc1cc(-c2cnc3cc(-c4cnn(C(C)C(=O)O)c4)ccn23)cc(OC)c1C(=O)NCC(F)(F)F (stereo not drawn) [Cpd 254, 2-[4-[3-[3,5-dimethoxy-4-(2,2,2-trifluoroethyl-carbamoyl)phenyl]imidazo[1,2-a]pyridin-7-yl]pyrazol-1-yl]propanoic acid] |
| 1000 to 5000 | 0.01 to 10 | 0.01 to 10 | 0.01 to 10 | COc1cc(-c2cnc3cc(-c4cnn(CCCC(=O)O)c4)ccn23)cc(OC)c1C(=O)NCC(F)(F)F [Cpd 255, 4-[4-[3-[3,5-dimethoxy-4-(2,2,2-trifluoroethyl-carbamoyl)phenyl]imidazo[1,2-a]pyridin-7-yl]pyrazol-1-yl]butanoic acid] |
| 1000 to 5000 | 100 to 500 | 10 to 100 | 100 to 500 | CCNC(=O)c1c(OC)cc(-n2cnc3cc(-c4cccnc4)ccc32)cc1OC [compound 2, N-ethyl-2,6-dimethoxy-4-[5-(3-pyridyl)benzimidazol-1-yl]benzamide] |
| 100 to 1000 | 10 to 100 | 0.01 to 10 | 0.01 to 10 | CCn1cc(-c2cnc3c(-c4cc(OC)c(C(=O)NCC(F)F)c(OC)c4)cnn3c2)cn1 [compound 21, N-(2,2-difluoroethyl)-4-[6-(1-ethylpyrazol-4-yl)pyrazolo[1,5-a]pyrimidin-3-yl]-2,6-dimethoxy-benzamide] |
